According to PubChem BioAssay (NCI):
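Dose response: 5 concentrations. Exposure: 48 h. Format: 96-well plates. Endpoint: linear interpolation; highest concentration if not reached. At the GI50, growth is halved. TGI marks complete inhibition of growth.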

Assays:
Test in all cases: NCI tumour cell line growth inhibition, 48 h
786-0 renal = system: 786-0 renal
EKVX NSCLC = system: EKVX NSCLC
HCT-116 colon = system: HCT-116 colon
A549 NSCLC = system: A549 NSCLC
UACC-62 melanoma = system: UACC-62 melanoma
K-562 leukemia = system: K-562 leukemia
SW-620 colon = system: SW-620 colon
T-47D breast = system: T-47D breast
SNB-19 CNS = system: SNB-19 CNS
CCRF-CEM leukemia = system: CCRF-CEM leukemia

Row | Structure (SMILES) | TGI (786-0 renal) [µM] | TGI (EKVX NSCLC) [µM] | TGI (HCT-116 colon) [µM] | TGI (A549 NSCLC) [µM] | TGI (UACC-62 melanoma) [µM] | TGI (K-562 leukemia) [µM] | TGI (SW-620 colon) [µM] | TGI (T-47D breast) [µM] | TGI (SNB-19 CNS) [µM] | TGI (CCRF-CEM leukemia) [µM] | GI50 (786-0 renal) [µM] | GI50 (EKVX NSCLC) [µM] | GI50 (HCT-116 colon) [µM] | GI50 (A549 NSCLC) [µM] | GI50 (UACC-62 melanoma) [µM] | GI50 (K-562 leukemia) [µM] | GI50 (SW-620 colon) [µM] | GI50 (T-47D breast) [µM] | GI50 (SNB-19 CNS) [µM] | GI50 (CCRF-CEM leukemia) [µM]
1 | O=c1c2c([nH]c3nccn13)CCC2 | > 10 | > 10 | > 10 | > 10 | > 10 | > 10 | > 10 | > 10 | > 10 | > 10 | – | – | – | – | – | – | – | – | – | –
2 | c1ccc(-c2nn3c(c2-c2ccnc4cc(OCCN5CCOCC5)ccc24)CCC3)nc1 | > 100 | > 100 | > 100 | > 100 | > 100 | > 100 | > 100 | > 100 | > 100 | > 100 | > 100 | > 100 | 31 | 43.8 | > 100 | 30.3 | 73.2 | > 100 | > 100 | > 95.9
3 | CO/N=C(\COc1ccc2c(=O)c3ccccc3oc2c1)c1ccccc1 | 72.5 | 50.6 | > 100 | 99.4 | 49.9 | > 100 | > 100 | > 100 | > 100 | > 100 | 25.4 | 20.9 | 68.6 | 35.2 | 21.6 | 72.1 | 55.9 | > 100 | 54.5 | > 100
4 | O=[N+]([O-])/C=C/c1c(Cl)cccc1Cl | 1.52 | 16.9 | 14 | 22.6 | 8.14 | 8.61 | 2.18 | 9.39 | 12.1 | > 18.2 | – | – | – | – | – | – | – | – | – | –
5 | OCCCCC#Cc1ccccc1C#Cc1ccc(O)cc1 | 36.2 | 37 | 31.8 | 30.8 | 29.6 | 45 | 37.1 | 45.2 | 35.9 | 26.1 | 19.4 | 17 | 16.6 | 15.8 | 15.7 | 20.4 | 18.2 | 19.7 | 19.2 | 7.35
6 | COc1ccc(-c2c(C)c(C(=O)O)nc(-c3ccc4c(O)c(OC)c5c(c4n3)=NC(C)(C)N=5)c2N)c(O)c1OC | 31.6 | > 100 | 52.1 | 55.5 | 62.2 | 47.9 | 35.4 | > 100 | 95 | 24.4 | – | – | – | – | – | – | – | – | – | –
7 | O=[N+]([O-])c1cc[n+]([O-])c2ccccc12 | 0.753 | 3.98 | 0.316 | 0.584 | 0.698 | 2.07 | 0.56 | 4.25 | 2.91 | 5.27 | 0.217 | 1.22 | 0.0698 | 0.149 | 0.231 | 0.26 | 0.106 | 0.321 | 0.374 | 1.55
8 | COc1ccc(/C=C(/c2ccccc2)[N+](=O)[O-])c(OC)c1 | 3.16 | 3.98 | 2.29 | 6.66 | 2.7 | 38.2 | 4.08 | 4.21 | 3.05 | 4.76 | 1.62 | 1.73 | 1.02 | 2.32 | 1.22 | 0.494 | 1.73 | 0.668 | 1.65 | 0.46
9 | CCC(=O)N1C/C(=C/c2ccc(Cl)cc2)C(=O)/C(=C/c2ccc(Cl)cc2)C1 | 1.22 | – | 0.435 | 4.14 | 1.94 | – | 0.94 | 3.27 | 2.45 | > 22.3 | 0.332 | – | 0.179 | 0.868 | 0.728 | 0.317 | 0.287 | 1.38 | 1.02 | 0.422
10 | CCOc1ccc2c(-c3ccnc(Nc4cc(OC)cc(C(F)(F)F)c4)n3)cnn2n1 | > 25 | > 25 | > 25 | > 25 | > 25 | > 25 | > 25 | > 25 | > 25 | > 25 | > 13.3 | > 25 | 6.42 | > 14.7 | > 10.9 | 1.97 | 13 | 1.26 | > 25 | > 25
11 | Cc1cn2c(/C=C3/C(=O)Nc4c3ccc3ccccc43)c(C(F)(F)F)nc2s1 | 39 | > 100 | > 100 | > 100 | > 100 | 14.1 | > 100 | > 100 | > 100 | 39.8 | 1.49 | 4.23 | 2.19 | 1.18 | 0.627 | 0.483 | 0.965 | 2.88 | 2.97 | 2.33
12 | Fc1ccc(-c2ncn(C3CCNCC3)c2-c2ccnc(Oc3ccc4c(c3)OCO4)n2)cc1 | > 25 | > 25 | > 25 | > 25 | > 25 | > 25 | > 25 | > 25 | > 25 | > 25 | > 23.8 | > 25 | 16.8 | 16.4 | > 15.7 | > 23.1 | > 25 | 12.7 | > 25 | > 25
13 | CN(C)C(=O)Nc1nc2cc(Cl)c(Cl)cc2[nH]1 | > 100 | > 100 | > 35 | > 25.4 | > 100 | > 33.8 | > 100 | > 100 | > 100 | > 100 | 1.21 | 5.3 | 0.463 | 0.704 | 0.382 | 0.41 | 0.476 | 0.655 | 11.6 | 0.953
